From patent publication US20020032177A1, “Use of D-chiro-inositol in the treatment of conditions associated with hypothalamic gene expression” (Insmed Pharmaceuticals, Inc., priority 2000, published 2002)
Read-outs that look alike come from different tables or passages of the source.

Legend:
[1] = obese rodents and humans; cited from earlier work
[2] = women with PCOS; cited from earlier work
AGRP mRNA = AGRP mRNA levels in diet-induced obese mice; type: in vivo; conditions: FIG. 2
Description: (§1) A high calorie diet (compositionally equivalent to the typical American diet) will induce obesity and diabetes in some mouse strains (e.g., C57BL/6J) but not others (e.g., A/J). […] These changes in hypothalamic gene expression are ultimately regulated by insulin, although part of the effect may be mediated indirectly by the effect of insulin on leptin synthesis in fat, which then feeds back to hypothalamus to enhance the direct effect of insulin on the hypothalamus. By enhancing the rate of translation and secretion of leptin this hypothalamic response is blocked or attenuated.
(§2) FIG. 1 and FIG. 2 depicts the results of studies in the diet induced mice on NPY and AGRP mRNA levels. DCI leads to lower NPY and AGRP mRNA.

leptin mRNA [3] = assay: Leptin mRNA in mice after DCI administration; type: in vivo; conditions: FIG. 3
Description: (§3) FIG. 3 and FIG. 4 depict, respectively, the effect of DCI administration on leptin mRNA and plasma leptin in mice. […] Thus, DCI enhances the rate of translation and secretion of leptin.

[4] = Adiposity of mice after DCI administration; type: in vivo; conditions: fed and 48-hour fasted
Description: as §3

plasma leptin = assay: Plasma leptin in mice after DCI administration; type: in vivo; conditions: FIG. 4
Description: as §3

NPY mRNA = NPY mRNA levels in diet-induced obese mice; type: in vivo
Description: as §1, §2

[5] = ob/ob mice, daily injections; cited from earlier work
leptin mRNA [6] = conditions: elevation of leptin by injection; cited from earlier work
[7] = lean (wild-type) mice, daily injections; cited from earlier work

## CN(C)C(=N)N=C(N)N [Metformin]
[1]
  food intake: decreases
[2]
  fertility: partially restores

## OC1C(O)C(O)C(O)C(O)C1O [DCI, D-chiro-inositol]
AGRP mRNA
  AGRP mRNA: lower
Leptin mRNA [3]
  leptin mRNA: decrease
[4]
  adiposity: without increasing adiposity
Plasma leptin; 48-hour fasted mice
  increase of plasma leptin: over 5 fold
Plasma leptin; fed mice
  increase of plasma leptin: over 2 fold
NPY mRNA; diet induced mice, FIG. 1
  NPY mRNA: lower
NPY mRNA; fasted state, diet-induced obese mice
  effect of fasting on NPY and AGRP mRNA: blocks or attenuates the effect of fasting

B1: leptin: product of the obese (ob) gene, secreted by adipose cells; given as daily injections of recombinant protein (protein, UniProt P41160 22-167, looked up)
Leptin: VPIQKVQDDTKTLIKTIVTRINDISHTQSVSAKQRVTGLDFIPGLHPILSLSKMDQTLAVYQQVLTSLPSQNVLQIANDLENLRDLLHLLAFSKSCSLPQTSGLQKPESLDGVLEASLYSTEVVALSRLQGSLQDILQQLDVSPEC
[5]
  body weight and fat: reduction
  food intake: markedly inhibited
Leptin mRNA [6]
  leptin mRNA: pronounced decreases
[7]
  food intake and body weight: modest decreases
